Results taken from ChEMBL document CHEMBL2390838, “Structure-based identification of ureas as novel nicotinamide phosphoribosyltransferase (Nampt) inhibitors” (J Med Chem, 2013).

Experiments:
Type in all cases: ADME, organism-based
[1] = Oral bioavailability in BALB/c mouse at 5 mg/kg; conditions: in vivo
[2] = Volume of distribution at steady state in BALB/c mouse at 1 mg/kg, iv; parameters: dose 1 mg/kg, route intravenous; conditions: in vivo, read-out: Vdss
[3] = AUC(infinity) in BALB/c mouse at 5 mg/kg, po; parameters: time infinity, dose 5 mg/kg, route oral; conditions: plasma
[4] = AUC(infinity) in BALB/c mouse at 1 mg/kg, iv; parameters: time infinity, dose 1 mg/kg, route intravenous; conditions: plasma
[5] = Cmax in BALB/c mouse at 5 mg/kg, po; parameters: dose 5 mg/kg, route oral; conditions: in vivo
[6] = Tmax in BALB/c mouse at 5 mg/kg, po; parameters: dose 5 mg/kg, route oral; conditions: in vivo
[7] = Cmax in BALB/c mouse at 1 mg/kg, iv; parameters: dose 1 mg/kg, route intravenous; conditions: in vivo
[8] = Tmax in BALB/c mouse at 1 mg/kg, iv; parameters: dose 1 mg/kg, route intravenous; conditions: in vivo

bioavailability [1]: 26%
Vd [2]: 1.1 L/kg
AUC(0-inf) [3]: 1.4 µM·h
AUC(0-inf) [4]: 0.92 µM·h
Cmax [5]: 1100 nM
Tmax [6]: 30 min
Cmax [7]: 2700 nM
Tmax [8]: 4.8 min
SMILES: O=C(NCc1cccnc1)Nc1ccc(S(=O)(=O)N2CC3CCC(C2)O3)cc1
